Data on 1 compound can be found in paper PMC4245162 (ACS Chemical Biology, 2014).

The assay has as its target T1, SETD8 (Homo sapiens, UniProt Q9NQR1).
T1 sequence (Q9NQR1 191-352 isoform Q9NQR1-2): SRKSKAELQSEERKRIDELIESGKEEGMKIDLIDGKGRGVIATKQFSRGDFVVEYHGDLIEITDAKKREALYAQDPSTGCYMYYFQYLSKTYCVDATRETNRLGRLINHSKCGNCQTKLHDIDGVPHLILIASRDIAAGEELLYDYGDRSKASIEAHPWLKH
The assay can be described thus: secondary radiometric filter paper assay, SETD8. Type of assay: biochemical. The following applies: read-out: IC50 against SETD8; apparent IC50; SAM/peptide/enzyme = 0.75:1.5:1.

pIC50: −log10 of the molar value.

The pIC50 is the IC50 on a negative log10 scale, so that one unit is a factor of ten. Take `O=C1C(SCCO)=C(SCCO)C(=O)c2ccccc21` [NSC95397]: the pIC50 is 4.09.
